In series [1] the test system is P. falciparum NF54 asexual blood stage parasites. As to the kind of experiment: Replication assay for asexual blood-stage parasites (SYBR Green). The format is cell-based. The settings on record: Plasmodium falciparum; P. falciparum NF54, 72 h incubation, 10% human serum; average of at least two replicate experiments; read-out: antimalarial IC50 asexual blood stages. The procedure:
(§1) Plasmodium falciparum strain NF54 was cultured in Roswell Park Memorial Institute (RPMI) 1640 medium supplemented with 25 mM NaHCO3, 10% human type A serum and 5% (v/v) human type 0 red blood cells (Sanquin, the Netherlands). Replication assays for asexual blood-stage parasites were performed by diluting parasites in RPMI1640 medium with 10% human serum to a parasitemia of 0.83% and a hematocrit of 3%. 30 μl of diluted parasites were combined with 30 μl of compound serially diluted in DMSO and RPMI1640 medium to reach a final DMSO concentration of 0.1% in a total assay volume of 60 μL. Following a 72 h incubation at 37 ° C., 3% O2, 4% CO2, 30 μL of diluted SYBR® Green reagent was added according to the instructions of the manufacturer (Life Technologies) and fluorescence intensity was quantified using a Biotek Synergy® 2 plate reader. Gametocyte viability assays were initiated by inoculating a culture flask with 1% asexual blood-stage parasites in 5% haematocrit in RPMI1640 medium with 10% human serum. From day 4 to day 9 after inoculation, cultures were treated with 50 mM N-acetylglucosamine to eliminate asexual blood-stage parasites. At day 11 post inoculation, gametocytes (predominantly stage IV) were isolated by Percoll® density gradient centrifugation. Gametocytes were seeded at a density of 5,000 cells/well in a 384 well plate and combined with compound diluted in DMSO and subsequently in RPMI1640 medium to reach a final DMSO concentration of 0.1% in a volume of 60 μL RPMI1640 medium with 10% human serum. Following a 72 h incubation at 37 ° C., 3% O2, 4% CO2, 30 μL of ONE-Glo® reagent (Promega) was added and luminescence was quantified using a Biotek Synergy 2 reader. IC50 values were derived by fitting a four parameter logistic regression model to the data using least squares to find the best fit.

In series [2] the test system is P. falciparum NF54 gametocytes. As to the kind of experiment: Gametocyte viability assay (ONE-Glo luminescence). Type of series: cell-based. The settings on record: Plasmodium falciparum; P. falciparum NF54 gametocytes (predominantly stage IV), 72 h incubation, 10% human serum; average of at least two replicate experiments; read-out: antimalarial IC50 gametocytes. The procedure:
as §1

The test system of series [3] is P. falciparum strain Pf3D70087/N9. As to the kind of experiment: In vivo antimalarial activity in humanized mouse model for P. falciparum infection. Details: species or system Plasmodium falciparum. The procedure: Reduction of existing parasitemia in vivo was investigated using a humanized mouse model for P. falciparum infection. Female NODscidIL2Rynull mice were engrafted by daily intravenous injection of 0.6 ml of human blood for 11 days. Subsequently, mice were infected with P. falciparum strain Pf3D70087/N9 by injecting 2.10^7 parasites in a volume of 0.2 ml. Four days post infection, mice were treated with a single 50 mg/kg dose of test compound. To this end, compounds were formulated in 70% Tween®-80 (d=1.08g/ml) and 30% ethanol (d=0.81g/ml), followed by a 10-fold dilution in H2O and administered by oral gavage. Parasitemia was followed by daily collection of 2 μl tail blood. The hematocrit was determined by fluorescence-activated cell sorting (FACS) and parasitemia by microscopy on >10,000 red blood cells. […] The compounds indicated at the legend were dosed as a single oral dose of 50 mg/kg at day 4 post infection (indicated by the arrow) and parasitemia was followed for another three days. The data shown in FIG. 1 indicate that all pantothenamide analogues tested show a dramatic reduction in blood stage parasitemia at a single oral dose of 50 mg/kg.

The nature of series [4]: Metabolic stability in human primary hepatocytes (hepatocyte relay assay). The settings on record: primary hepatocytes (hepatocyte relay assay), human primary hepatocytes, relay assay, 10 μM, average of two replicate experiments; for half-life at 10 μM: read-out: T½ average. The format is in vitro ADME. The procedure:
(§2) Metabolic stability of compounds of the invention was assessed in a hepatocyte relay assay. Human primary hepatocytes (Xenotech) were cultured in collagen coated 96-well plates in Williams E (Gibco® 32551087) supplemented with 1% PenStrep (Gibco 15140-122), 1% Fungizone® (Gibco 15290026), 10% heat-inactivated fetal bovine serum (hiFBS) (Gibco 10270-106), 0.1 IU/ml insulin (Sigma 12643) and 7μM hydrocortisone hemisuccinate (Sigma H2270) at 37° C. and 5% CO2. Test compounds were added to a final concentration of 10 μM in 0.1 DMSO. Every 24 hours, the cell supernatant was transferred to freshly plated, metabolically full active cells. At regular time intervals, aliquots of supernatants were frozen for future analysis. At the end of the incubation, all samples were thawed and compound levels in time were determined by LC-MS analyses. Data were analysed by linear regression.

The test system of series [5] is Human primary hepatocytes. The series is described as above. The format is in vitro ADME. The settings on record: comparative example. The procedure: as §2
Where [6] appears, read: female NODscidIL2Rγnull mice, single oral dose 50 mg/kg at day 4 post infection.
[7] abbreviates: same protocol as example 16, relay assay.

A word on the IC50: it is the concentration that inhibits the measured activity by half. One may read the hepatocyte CLint as the rate of metabolic loss divided by the concentration.

For the compound `C[C@@H](CNC(=O)[C@H](O)C(C)(C)CO)NC(=O)c1cccc(Cl)c1` [Compound F1, (2R)-N-[(2S)-2-[(3-chlorophenyl)formamido]propyl]-2,4-dihydroxy-3,3-dimethylbutanamide], the IC50 worked out at 2.1 nM in series [1] and 0.4 nM in series [2].
On to `C[C@@H](CNC(=O)[C@H](O)C(C)(C)CO)NC(=O)c1cccc(F)c1` [Compound E1, (2R)-N-[(2S)-2-[(3-fluorophenyl)formamido]propyl]-2,4-dihydroxy-3,3-dimethylbutanamide], for which the “In vivo efficacy log reduction in parasitemia in Pf SCID mouse at 50 mg/kg p.o. 1 × QD” value in series [3] (setting [6]) is over 3. Further, the IC50 in series [1] was 1.9 nM. Moreover, in series [4], the hepatocyte CLint at 10 μM came out at 0.5 µL/min/1e6 cells and the half-life at 10 μM came out at 42.2 h. The IC50 in series [2] was 2 nM.
`C[C@@H](CNC(=O)[C@H](O)C(C)(C)CO)NC(=O)c1cc(Cl)c(F)cc1F` [Compound D1, (2R)-N-[(2S)-2-[(5-chloro-2,4-difluorophenyl)formamido]propyl]-2,4-dihydroxy-3,3-dimethylbutanamide]: the results for the IC50 in series [1] and in series [2] were 2.3 nM and 0.4 nM, respectively.
On to `C[C@H](CNC(=O)[C@@H](O)C(C)(C)CO)NC(=O)CCc1ccccc1F` [MMV689258, reference compound], for which the “in vivo efficacy compared with the compounds of the invention (in words)” value in series [3] (comparative example) is “substantially less efficacious”. In series [3] (comparative example, same protocol as example 17, female NODscidIL2Rγnull mice), the “In vivo efficacy log reduction in parasitemia in Pf SCID mouse at 50 mg/kg p.o. 1 × QD” value stood at 1.5. The “metabolic stability compared with the compounds of the invention (in words)” value in series [5] was “substantially lower”. For the same compound, in series [5] (setting [7]), the “Metabolic stability in human hepatocytes Clint” value is reported as 0.8 μl/min/10^6 cells and the “Metabolic stability in human hepatocytes T½” value was 29.403 h.
With `C[C@@H](CNC(=O)[C@H](O)C(C)(C)CO)NC(=O)c1cc(F)c(F)cc1F` [Compound A1, (2R)-2,4-dihydroxy-3,3-dimethyl-N-[(2S)-2-[(2,4,5-trifluorophenyl)formamido]propyl]butanamide], the “In vivo efficacy log reduction in parasitemia in Pf SCID mouse at 50 mg/kg p.o. 1 × QD” value in series [3] (setting [6]) was over 3. Also, the IC50 in series [1] came to 2.4 nM. Also, in series [4], the hepatocyte CLint at 10 μM amounted to 0.4 µL/min/1e6 cells and the half-life at 10 μM was found to be 59.4 h. Moreover, the concentration for half-maximal inhibition (IC50) in series [2] was 8 nM.
On to `C[C@@H](CNC(=O)[C@H](O)C(C)(C)CO)NC(=O)c1cccc(C#N)c1` [Compound C1, (2R)-N-[(2S)-2-[(3-cyanophenyl)formamido]propyl]-2,4-dihydroxy-3,3-dimethylbutanamide], for which the “In vivo efficacy log reduction in parasitemia in Pf SCID mouse at 50 mg/kg p.o. 1 × QD” value in series [3] (setting [6]) was over 3. Also, the IC50 in series [1] amounted to 7.4 nM. Also, in series [4], the hepatocyte CLint at 10 μM stood at 0.3 µL/min/1e6 cells and the half-life at 10 μM came to 84.1 h. The IC50 in series [2] amounted to 2.2 nM.
As for `C[C@@H](CNC(=O)[C@H](O)C(C)(C)CO)NC(=O)c1ccc(F)c(Cl)c1` [Compound G1, (2R)-N-[(2S)-2-[(3-chloro-4-fluorophenyl)formamido]propyl]-2,4-dihydroxy-3,3-dimethylbutanamide], the figures for the IC50 in series [1] and in series [2] were 3.4 nM and 0.2 nM, respectively.
In the case of `C[C@@H](CNC(=O)[C@H](O)C(C)(C)CO)NC(=O)c1cc(C#N)ccc1F` [Compound B1, (2R)-N-[(2S)-2-[(5-cyano-2-fluorophenyl)formamido]propyl]-2,4-dihydroxy-3,3-dimethylbutanamide], the “In vivo efficacy log reduction in parasitemia in Pf SCID mouse at 50 mg/kg p.o. 1 × QD” value in series [3] (setting [6]) is 2.4. Besides, the IC50 was determined as 6.2 nM in series [1] and 21.4 nM in series [2]. The same compound came in with a hepatocyte CLint at 10 μM in series [4] of 0.2 µL/min/1e6 cells. Also, in series [4], the half-life at 10 μM was 107 h.

The values are drawn from patent US11834391B2, “Pantothenamide analogues” (MMV MEDICINES FOR MALARIA VENTURE, priority 2018, dated 2023).
